We go through 13 molecules from ChEMBL document CHEMBL3044604, “Synthesis of some substituted furan-2(5H)-ones and derived quinoxalinones as potential anti-microbial and anti-cancer agents” (Med Chem Res, 2011).

Broadly, the IC50 is the point on the concentration scale where inhibition reaches its midpoint. The low end stands for greater potency, the high end for weaker potency. One may read the MBC as the smallest concentration meeting the test's criterion for killing. The low end stands for more potent killing, the high end for less potent killing. Usually MIC stands for the least concentration at which growth counts as inhibited. The low end stands for inhibition by little substance, the high end for a need for much substance. Broadly, the MFC is the lowest tested concentration that kills the fungus rather than only halting it.

Assay [1] in a line: Inhibition of Marthasterias glacialis CDK1/cyclin B using histone H1 as substrate and [gamma32P]ATP after 10 min by scintillation counting.
Assay [2] has as its target Glycogen synthase kinase-3 (Homo sapiens, UniProt P49840+P49841). The assay is described as follows: Inhibition of GSK3alpha/beta (unknown origin). Format: protein assay.
The target of assay [3] is Cyclin-dependent kinase 5/CDK5 activator 1 (Homo sapiens, UniProt Q00535). The assay is described as follows: Inhibition of CDK5/p25 (unknown origin). Format: protein-complex assay.
For assay [4], the system named is Candida albicans. The assay is described as follows: Antifungal activity against Candida albicans ATCC 10231 at 1 mg/ml after 24 hr by agar cup diffusion method. Format: functional. Particulars: ATCC 10231, 24 h, read-out: DIZ.
The test system of a further assay is Pseudomonas aeruginosa. Put plainly: Antibacterial activity against Pseudomonas aeruginosa ATCC 9027 at 1 mg/ml after 24 hr by agar cup diffusion method. Format: functional. Conditions: ATCC 9027, 24 h, read-out: DIZ.
The subject of assay [5] is Escherichia coli. The assay is described as follows: Antibacterial activity against Escherichia coli NCTC 10418 at 1 mg/ml after 24 hr by agar cup diffusion method. Format: functional. Particulars: NCTC 10418, 24 h, read-out: DIZ.
The subject of assay [6] is Staphylococcus aureus. The assay is described as follows: Antibacterial activity against Staphylococcus aureus ATCC 6538 incubated for 48 hr followed by subculturing measured after 18 hr. Format: functional.
Assay [7] concerns Staphylococcus aureus. Put plainly: Antibacterial activity against Staphylococcus aureus ATCC 6538 after 48 hr by two fold serial dilution method. The class given is functional. Particulars: ATCC 6538, 48 h.
The subject of assay [8] is Staphylococcus aureus. Put plainly: Antibacterial activity against Staphylococcus aureus ATCC 6538 at 1 mg/ml after 24 hr by agar cup diffusion method. The class given is functional. Conditions: ATCC 6538, 24 h, read-out: DIZ.
Assay [9] relates to Escherichia coli. The assay is described as follows: Antibacterial activity against Escherichia coli NCTC 10418 after 48 hr by two-fold serial dilution method. Conditions: NCTC 10418, 48 h. Format: functional.
Assay [10] deals with Escherichia coli. The assay is described as follows: Antibacterial activity against Escherichia coli NCTC 10418 incubated for 48 hr followed by subculturing measured after 18 hr. The class given is functional.
Assay [11] deals with Candida albicans. The assay is described as follows: Antifungal activity against Candida albicans ATCC 10231 after 48 hr by two-fold serial dilution method. Particulars: ATCC 10231, 48 h. The class given is functional.
Assay [12] concerns Candida albicans. The assay is described as follows: Antifungal activity against Candida albicans ATCC 10231 incubated for 48 hr followed by subculturing measured after 18 hr. Format: functional.

Each structure is given as a SMILES string. Values after ≈ are worked out from the molar mass of the structure shown. Where only a bound is given, the exact number is not on record here.

Cyclin-dependent kinase 5/CDK5 activator 1, sequence (Q00535 whole entry, the tested form may be a part): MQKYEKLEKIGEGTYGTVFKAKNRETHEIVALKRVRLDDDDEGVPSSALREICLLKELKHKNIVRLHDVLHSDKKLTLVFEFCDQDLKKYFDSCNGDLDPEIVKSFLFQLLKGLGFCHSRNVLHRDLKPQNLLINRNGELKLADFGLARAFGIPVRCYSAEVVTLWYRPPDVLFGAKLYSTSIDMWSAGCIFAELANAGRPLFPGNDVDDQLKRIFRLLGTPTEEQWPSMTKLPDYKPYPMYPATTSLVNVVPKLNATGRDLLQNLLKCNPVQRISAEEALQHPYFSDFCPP
Cyclin-dependent kinase 5/CDK5 activator 1, sequence (Q15078 whole entry, further chain, the tested form may be a part): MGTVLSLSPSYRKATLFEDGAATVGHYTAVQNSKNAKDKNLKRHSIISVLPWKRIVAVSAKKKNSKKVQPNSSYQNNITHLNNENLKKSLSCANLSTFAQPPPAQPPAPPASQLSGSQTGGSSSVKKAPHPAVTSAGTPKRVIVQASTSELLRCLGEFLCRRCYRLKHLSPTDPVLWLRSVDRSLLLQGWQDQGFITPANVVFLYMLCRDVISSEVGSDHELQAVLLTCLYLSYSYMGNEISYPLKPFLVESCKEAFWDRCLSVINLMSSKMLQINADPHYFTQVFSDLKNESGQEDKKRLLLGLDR

Regarding `COc1ccc(-c2nn(-c3ccccc3)cc2C2OC(=O)C(O)=C2Br)cc1` (configuration not stated), the 50% inhibitory concentration (IC50) in [1], in [2] and in assay [3] was above 10 µM each time. For the same molecule, the zone of inhibition at 1000 µg/mL with Candida albicans [4] stood at 15 mm.

For `COc1ccc(C2OC(=O)C(O)=C2I)cc1OC` (configuration not stated), the IC50 in [1], in [2] and in [3] was above 10 µM throughout. Also, the zone of inhibition at 1000 µg/mL in the assay with Candida albicans [4] turned out to be 17.5 mm.

With `O=c1[nH]c2ccccc2nc1/C(I)=C/c1ccc(Cl)cc1`, the zone of inhibition at 1000 µg/mL in the assay on Pseudomonas aeruginosa was 16.5 mm; in the assay with Escherichia coli [5] it was 15 mm. The IC50 in [1], in assay [2] and in assay [3] was above 10 µM throughout.

Consider `O=C1OC(c2ccc(Cl)cc2)C(I)=C1O` (configuration not stated), for which the IC50 in assay [1], in [2] and in [3] was above 10 µM each time. For the same molecule, in the assay with Candida albicans [4], the zone of inhibition at 1000 µg/mL was 17 mm.

`Cc1nn(-c2ccccc2)c(C)c1C1OC(=O)C(O)=C1I` (configuration not stated): in the assay on Staphylococcus aureus [6], the minimum bactericidal concentration (MBC) amounted to 62.5 µg/mL (≈ 158 µM). The IC50 in assay [1], in assay [2] and in assay [3] was above 10 µM in each case. Moreover, in the assay on Staphylococcus aureus [7], the MIC is 31.2 µg/mL (≈ 78.9 µM). The zone of inhibition at 1000 µg/mL in the assay with Staphylococcus aureus [8] stood at 19 mm; in the assay on Candida albicans [4], 17.5 mm.

For `Cc1nn(-c2ccccc2)c(C)c1/C=C(\I)c1nc2ccccc2[nH]c1=O`, the zone of inhibition at 1000 µg/mL is 17.5 mm in the assay on Pseudomonas aeruginosa and 20 mm with Escherichia coli [5]. The 50% inhibitory concentration (IC50) in assay [1], in assay [2] and in [3] was above 10 µM throughout. This molecule registered a minimal inhibitory concentration (MIC) in the assay with Escherichia coli [9] of 62.5 µg/mL (≈ 133 µM). The same molecule showed an MBC with Escherichia coli [10] of 250 µg/mL (≈ 534 µM).

On to `O=c1[nH]c2ccccc2nc1/C(I)=C/c1ccccc1`, for which the IC50 in [1], in assay [2] and in assay [3] was above 10 µM in each case. In the assay on Candida albicans [4], the zone of inhibition at 1000 µg/mL was 16 mm.

In the case of `O=C1OC(c2ccccc2)C(I)=C1O` (configuration not stated), the IC50 in assay [1], in [2] and in assay [3] was above 10 µM in each case. Moreover, the minimum inhibitory concentration (MIC) against Candida albicans [11] is 62.5 µg/mL (≈ 207 µM). The molecule also had a minimal fungicidal concentration (MFC) with Candida albicans [12] of 125 µg/mL (≈ 414 µM). The zone of inhibition at 1000 µg/mL in the assay with Candida albicans [4] was 20.5 mm.

In the case of `Cc1nn(-c2ccccc2)c(C)c1C1OC(=O)C(O)=C1Br` (configuration not stated), the minimal bactericidal concentration (MBC) against Staphylococcus aureus [6] came out at 125 µg/mL (≈ 358 µM). The IC50 in assay [1], in assay [2] and in assay [3] was above 10 µM throughout. Also, in the assay with Staphylococcus aureus [7], 62.5 µg/mL (≈ 179 µM) was the least that counted as inhibitory (MIC). Besides, the values for the zone of inhibition at 1000 µg/mL in the assay on Staphylococcus aureus [8], with Escherichia coli [5] and in the assay with Candida albicans [4] were 19 mm, 17 mm and 17 mm, respectively.

For `Cc1nn(-c2ccccc2)c(C)c1C1OC(=O)C(O)=C1Cl` (configuration not stated), the IC50 in [1], in assay [2] and in assay [3] was above 10 µM throughout. For the same molecule, in the assay on Candida albicans [4], the zone of inhibition at 1000 µg/mL is 16.5 mm.

In turn, `Clc1ccccc1C(c1ccccc1)(c1ccccc1)n1ccnc1` [CLOTRIMAZOLE] showed an MIC against Candida albicans [11] of 7.81 µg/mL (≈ 22.6 µM). The minimal fungicidal concentration (MFC) against Candida albicans [12] was 15.6 µg/mL (≈ 45.3 µM). Also, the zone of inhibition at 1000 µg/mL in the assay with Candida albicans [4] was 28 mm.

Take `O=C1OC(c2cn(-c3ccccc3)nc2-c2ccc(Br)cc2)C(Br)=C1O` (configuration not stated): the MBC against Staphylococcus aureus [6] was found to be 250 µg/mL (≈ 525 µM). Moreover, the IC50 in [1], in [2] and in [3] was above 10 µM each time. Also, the minimal inhibitory concentration (MIC) against Staphylococcus aureus [7] is 125 µg/mL (≈ 263 µM). In addition, the zone of inhibition at 1000 µg/mL was 18 mm in the assay with Staphylococcus aureus [8], 17 mm in the assay with Escherichia coli [5] and 16 mm in the assay on Candida albicans [4].

`O=c1[nH]c2ccccc2nc1/C(Cl)=C/c1ccc(Cl)cc1` showed an MBC with Staphylococcus aureus [6] of 125 µg/mL (≈ 394 µM). The results for the zone of inhibition at 1000 µg/mL in the assay on Pseudomonas aeruginosa, in the assay with Staphylococcus aureus [8] and with Candida albicans [4] were 15 mm, 25 mm and 17 mm, respectively. The half-maximal inhibitory concentration (IC50) in [1], in [2] and in assay [3] was above 10 µM throughout. The same molecule had a minimum inhibitory concentration (MIC) in the assay on Staphylococcus aureus [7] of 15.6 µg/mL (≈ 49.2 µM).
